One compound from patent publication US9522125B1, “Method of treating cancer” (Macau University of Science and Technology, priority 2015, dated 2016) can be followed below.

One experiment deals with ROS1 kinase (Homo sapiens, UniProt P08922). Description: In vitro ROS1 enzymatic assay (LanthaScreen Eu kinase binding assay). As to conditions: room temperature, 1 hour. As for the experimental part:
1.2 In Vitro ROS1 Enzymatic Assay
LanthaScreen® Eu kinase binding assay was used to determine the changes in kinase activity, which is an assay based on the binding and displacement property of the kinase with substrate. Briefly, the assay was performed at room temperature for 1 hour in a total volume of 15 μL, including 5 μL of test compound, 5 μL of kinase/antibody mixture and 5 μL of tracer. The signal of the 384-well plate was then measured at the end of the reactions.

Experiment [1] has as its system HCC78 cells. As to the kind of experiment: Apoptosis analysis (morphology; Annexin-V FITC/PI flow cytometry) in HCC78 cells. Format: cell-based. As for the experimental part:
HCC78 cells were seeded on a 6-well plate, and were allowed to attach overnight. The cells were treated with a dilution series of mitoxantrone for 48 h, collected by trypsin and washed twice with ice-cold PBS, and then resuspended in 100 μl 1× binding buffer. 2 μL Annexin-V FITC and 4 μL PI (100 μg/ml) were added to the solution and mixed well. After incubation for 15 min in the dark at room temperature, 400 μL of 1× binding buffer was added to each tube, where apoptosis level was then quantitatively analyzed using a FACSAria III Flow Cytometer (BD Biosciences, San Jose, Calif., USA).
A general note: A flow cytometer gives signals particle by particle.

The subject of experiment [2] is HCC78 cells. As to the kind of experiment: MTT cytotoxicity assay on HCC78 cells. It is filed as cell-based. Conditions: Homo sapiens, 72 h treatment. As to the method: HCC78 cell line was purchased from the American Type Culture Collection (ATCC) (Manassas, Va., USA). Cells were cultured in RPMI-1640 medium containing 10% fetal bovine serum (FBS), 100 units/mL penicillin, and 100 μg/mL streptomycin under a humidified atmosphere of 5% CO2 at 37° C. Mitoxantrone was dissolved in DMSO.
(§1) 1.3 MTT Cytotoxicity Assay
(§2) 3000 cells were seeded on 96-well plates, then the plates were cultured overnight for cell adhesion, and treated with DMSO or various concentrations of mitoxantrone for 72 h. 10 μL of MTT (5 mg/mL; Sigma) was added in each well, and incubation was continued for another 4 hours, then the dark blue crystals were dissolved in 100 μL resolved solution (10% SDS and 0.1 mM HCL). Finally, the absorbance was measured at 570 nm by a microplate reader (Tecan, Morrisville, N.C., USA). The cell viability was calculated relative to untreated controls, and results were presented based on at least 3 independent experiments.

For another experiment, the system named is CCD19-Lu cells. Description: MTT cytotoxicity assay on normal lung cells CCD19-Lu. Format: cell-based. Conditions: 72 h treatment. As for the experimental part:
as §1, §2

In a further experiment the test system is ROS1 phosphorylation. Description: Western blot analysis of ROS1 phosphorylation and downstream signaling in HCC78 cells. Format: cell-based. As to conditions: 48 h, 5 nM, 10 nM and 20 nM. As for the experimental part:
1.5 Western Blot Analysis
After cells were plated on 6-well plates overnight, a wide concentrations of mitoxantrone were administered for 48 h. Cells were washed twice with cold PBS and then lysed in RIPA lysis buffer containing protease and phosphatase inhibitors, and protein concentration of the cell lysates were measured using the Bio-Rad protein Assay kit (Bio-Rad, Philadelphia, Pa., USA). After equalizing the protein concentrations of the samples, 5× laemmli buffer was added and boiled at 100° C. for 5 min. Equal amounts of protein samples (30 μg) were subjected to SDS-PAGE and separated with a 10% gel; then the separated proteins were transferred to a Nitrocellulose (NC) membrane, which was then exposed to 5% non-fat dried milk in TBS containing 0.1% Tween 20 (0.1% TBST) for 1 h at room temperature, followed by overnight incubation at 4° C. with primary anti-bodies (1:1000 dilutions). After being washed 3 times by TBST, the membranes were incubated with secondary fluorescent antibodies (1:10000 dilutions) to rabbit or mouse, the signal intensity of the membranes was detected by an LI-COR Odessy scanner (Belfast, Me., USA). Antibodies against GAPDH, p-AKT, p-ROS1, ROS1, p-ERK, ERK, p-STAT3, STAT3 were purchased from Cell signaling Technology. Anti-AKT antibody was acquired from Santa Cruz Biotechnology.
For orientation: In western blotting, separated proteins are transferred to a membrane and probed.

What is called IC50 is the concentration that gives 50% inhibition. Low values mean higher potency, high ones lower potency.

Molecules are shown by their SMILES.

Chain of ROS1 kinase (P08922 28-2347): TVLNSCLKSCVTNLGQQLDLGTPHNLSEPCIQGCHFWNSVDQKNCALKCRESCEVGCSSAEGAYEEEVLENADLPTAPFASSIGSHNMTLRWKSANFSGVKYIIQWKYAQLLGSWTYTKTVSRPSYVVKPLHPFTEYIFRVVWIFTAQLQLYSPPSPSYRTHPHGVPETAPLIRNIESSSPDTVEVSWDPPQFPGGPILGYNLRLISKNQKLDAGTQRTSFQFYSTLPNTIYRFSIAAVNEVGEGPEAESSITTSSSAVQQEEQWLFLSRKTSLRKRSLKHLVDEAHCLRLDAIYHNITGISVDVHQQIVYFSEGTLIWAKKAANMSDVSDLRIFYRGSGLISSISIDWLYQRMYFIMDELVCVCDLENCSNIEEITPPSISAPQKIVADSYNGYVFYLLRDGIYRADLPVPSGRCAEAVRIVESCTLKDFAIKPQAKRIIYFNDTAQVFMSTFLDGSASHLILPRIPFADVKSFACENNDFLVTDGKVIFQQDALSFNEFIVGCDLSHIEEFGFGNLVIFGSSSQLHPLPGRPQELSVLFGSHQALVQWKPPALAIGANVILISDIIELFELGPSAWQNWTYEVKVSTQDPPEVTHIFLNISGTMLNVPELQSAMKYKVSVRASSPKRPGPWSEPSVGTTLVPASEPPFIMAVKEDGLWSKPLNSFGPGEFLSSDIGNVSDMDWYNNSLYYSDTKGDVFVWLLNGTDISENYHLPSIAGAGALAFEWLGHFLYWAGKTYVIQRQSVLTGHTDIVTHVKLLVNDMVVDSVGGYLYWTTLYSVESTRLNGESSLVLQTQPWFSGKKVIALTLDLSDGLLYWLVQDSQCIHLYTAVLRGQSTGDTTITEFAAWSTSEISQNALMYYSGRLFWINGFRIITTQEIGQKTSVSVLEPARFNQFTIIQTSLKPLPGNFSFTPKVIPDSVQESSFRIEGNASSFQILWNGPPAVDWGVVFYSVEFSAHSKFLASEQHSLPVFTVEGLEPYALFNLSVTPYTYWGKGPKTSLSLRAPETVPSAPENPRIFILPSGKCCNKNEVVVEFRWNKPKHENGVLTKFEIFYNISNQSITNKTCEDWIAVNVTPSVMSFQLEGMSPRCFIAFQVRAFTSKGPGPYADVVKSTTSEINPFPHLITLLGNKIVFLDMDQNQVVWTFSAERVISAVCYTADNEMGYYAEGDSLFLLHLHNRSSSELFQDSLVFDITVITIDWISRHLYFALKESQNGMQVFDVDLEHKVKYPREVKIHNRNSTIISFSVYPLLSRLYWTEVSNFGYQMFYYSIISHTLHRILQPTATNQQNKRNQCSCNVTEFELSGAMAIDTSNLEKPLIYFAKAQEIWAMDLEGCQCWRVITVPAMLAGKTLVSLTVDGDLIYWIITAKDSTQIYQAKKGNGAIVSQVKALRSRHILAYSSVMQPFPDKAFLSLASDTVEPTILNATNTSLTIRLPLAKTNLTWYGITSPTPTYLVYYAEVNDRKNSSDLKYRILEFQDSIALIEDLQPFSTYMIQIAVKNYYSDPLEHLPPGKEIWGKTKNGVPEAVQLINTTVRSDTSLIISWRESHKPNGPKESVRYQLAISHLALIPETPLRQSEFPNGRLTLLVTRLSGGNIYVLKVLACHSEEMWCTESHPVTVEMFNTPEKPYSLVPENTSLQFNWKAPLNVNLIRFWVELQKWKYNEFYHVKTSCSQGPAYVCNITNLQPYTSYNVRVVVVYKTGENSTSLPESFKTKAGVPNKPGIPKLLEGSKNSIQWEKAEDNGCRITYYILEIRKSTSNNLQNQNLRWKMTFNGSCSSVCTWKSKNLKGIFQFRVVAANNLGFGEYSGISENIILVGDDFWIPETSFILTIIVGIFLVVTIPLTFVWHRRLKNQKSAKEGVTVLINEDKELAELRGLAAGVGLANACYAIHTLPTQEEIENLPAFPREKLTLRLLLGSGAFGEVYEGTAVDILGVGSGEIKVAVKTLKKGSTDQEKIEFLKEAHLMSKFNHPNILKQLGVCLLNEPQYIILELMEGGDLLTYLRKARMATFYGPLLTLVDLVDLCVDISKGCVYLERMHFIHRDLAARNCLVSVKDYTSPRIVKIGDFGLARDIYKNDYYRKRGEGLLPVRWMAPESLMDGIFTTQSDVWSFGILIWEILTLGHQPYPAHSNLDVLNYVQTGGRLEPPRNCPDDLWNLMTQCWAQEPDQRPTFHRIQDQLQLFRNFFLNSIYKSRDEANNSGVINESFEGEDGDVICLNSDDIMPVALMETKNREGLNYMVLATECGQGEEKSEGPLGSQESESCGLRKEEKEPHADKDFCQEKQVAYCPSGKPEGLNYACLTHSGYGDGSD

As to `O=C1c2c(O)ccc(O)c2C(=O)c2c(NCCNCCO)ccc(NCCNCCO)c21` [Mitoxantrone, mitoxantrone], the IC50 on ROS1 kinase is 36 nM; with HCC78 cells [2], 13.8 ± 2.49 nM; in the experiment on CCD19-Lu cells (Homo sapiens, CCD 19Lu, CCD19-Lu normal lung cells), above 160 nM. Also, in the experiment on HCC78 cells [1] (48 h, 5 nM, 10 nM and 20 nM, compared with the control group), the “induction of apoptosis (flow cytometry)” value is “induced significant apoptosis levels”. Also, the “concentration from which cells detached and became smaller (morphological indication of apoptosis)” value in the experiment on HCC78 cells [1] (FIG. 4) is given as at least 10 nM. Moreover, the “fold of IC50 in CCD19-Lu over IC50 on HCC78” value with CCD19-Lu cells is given as “at least 11.6 fold”. In the experiment on ROS1 phosphorylation, the “ROS1 phosphorylation and downstream signaling molecules Erk1/2, STAT3 and AKT (western blot)” value is given as “dose-dependent decrease”.
